# In US9539301B2, “Melanotropin ligands for skin care” (THE ARIZONA BOARD OF REGENTS ON BEHALF OF THE UNIVERSITY OF …, priority 2011, dated 2017):
# Entries after “also recorded” stand apart in the source; their conditions may differ. Square brackets hold non-standard residues; d marks the D form. Peptide text beside a SMILES is read from it. d2Nal = N[C@H](Cc1ccc2ccccc2c1)C(=O)O; Nle = CCCC[C@H](N)C(=O)O
# How the values were obtained:
# MC1R = MC1R (Homo sapiens, UniProt Q01726); conditions: cited from earlier work
# MC4R = MC4R (Homo sapiens, UniProt P32245); conditions: footnote: value denotes an EC50; read-out: EC50 MC4R (values derived from literature); cited from earlier work
# MC5R = MC5R (Homo sapiens, UniProt P33032); conditions: footnote: value denotes an EC50; read-out: EC50 MC5R (values derived from literature); cited from earlier work
# A375/MC1R cells = test: In vitro MC1R probe uptake study (fluorescence microscopy); type: cell-based, human
# Procedure: Samples were viewed using an Axio Observer Z1 inverted fluorescence microscope (Carl Zeiss, Inc, Germany) using 40×/1.3NA oil immersion objectives through a narrow band Cy5 filter. Cy5 fluorescence images were prepared with a DIC overlay image using Axiovision 4.6 software (Carl Zeiss, Inc, Germany).
# To study uptake of the MC1R probe onto and into cells, MC1RL-800 probe was incubated with live cells and images were acquired at different time-points after incubation using an inverted microscope.
# [1] = type: physicochemical; conditions: pH 7.4
# Procedure: The log of the octanol-water partition coefficient at pH 7.4 (log D7.4) was determined by miniaturised shake flask assay. Briefly, (200 µL to 1 mL) n-octanol (Sigam) was added to a solution of the test compound prepared in PBS (25 mM NaH2PO4/Na2HPO4 buffer, pH 7.4, Sigma, HPLC grade). Then, three different ratios of octanol to PBS buffer were prepared. The mixture was stirred in a vortex mixer at room temperature for 1 min and then two layers were separated by centrifuge. The concentration of compound in each layer was determined by HPLC (Poroshell 120 EC-C18 column) using (26% acetonitrile in water, 0.1% TFA) in 280 nm channel. All sample injections were performed 3 times, and the results were averaged to yield the final values.
# To measure lipophilicity of the probe, log D (distribution co-efficient) was determined.
# [2] = mouse, in vivo
# Procedure: (§1) Tumors, kidneys and liver were excised, rinsed with PBS, blotted dry, and then imaged ex vivo with Optix-MX3 as described above. Images were analyzed as described above.
# (§2) The pharmacokinetics of probe uptake and clearance was also characterized using a three-compartment mathematical model, which includes tumor, kidney and mouse volumes, and assumes mass conservation of the ligand. This model was used to account for the interference of the tumor ligand release in the uptake and clearance dynamics of blood and kidneys.
# [3] = test system: A375/MC1R and A375 xenograft tumors; test: Tumor xenograft fluorescence imaging, in vivo tumor targeting and blocking; parameters: species or system nu/nu mice
# Procedure: Female nu/nu mice 6-8 weeks old (Harlan Sprague Dawley, Inc., Indianapolis, Ind.) were injected subcutaneously (s.c.) with 1×10^6 MC1R expressing A375 cells in the right and the parental one in the left flank. Tumor volume was determined with calipers using the formula: volume=(length×width^2)/2. Once tumors reached 500-800 mm^3, 1 nmol/kg-30 nmol/kg of MC1R imaging probe in 100 µL sterile saline was injected into the tail vein. In vivo fluorescence images were acquired using the Optix-MX3 (Advance Research Technologies, Inc. a subsidiary of SoftScan Healthcare Group, Montreal, Canada). Animals were positioned on a heating pad and anesthetized using isoflurane (flow 2-2.5 l/min). Fluorescence images were acquired using a scan resolution of 1.5 mm and a 790-nm pulsed laser diode with 40 MHz frequency and 12-ns time window. Images were analyzed using Optix-MX3 Optiview Software (version 3.01). Autofluorescence background was subtracted by determining the mean tumor fluorescence signal prior to injection, then mean normalized intensity values were obtained within a ROI on these images.
# Tumors were excised and center slice of each tumor was imaged using both Optix-MX3 (as described above) and IVIS 200 imaging system (Caliper LifeSciences, MA). For IVIS 200 acquisitions, the standard ICG excitation and emission filter set was used for imaging. After imaging, the slices were fixed in formalin and embedded in paraffin for histology. Formalin fixed sections (5 µm) were stained with hematoxylin and eosin (H&E). […]
# To investigate tumor targeting of the probe in vivo, bilateral subcutaneous xenograft tumors were established with A375/MC1R engineered cells in the right flank, and A375 parental cells with relatively low MC1R expression in the left flank. After tumor growth to approximately 500-800 mm^3, MC1RL-800 was injected intravenously and fluorescence accumulation was monitored over time. […] IHC staining confirmed the high and low MC1R expression in the two tumor types, and areas with the highest IHC staining corresponded to areas with the highest fluorescence signal (FIG. 27B).
# [4] = mouse, in vivo, iv, 5 nmol/kg
# Procedure: as §1, §2
# [5] = A375/MC1R cells, after incubation
# [6] = co-injection 0.25 μg NDP-a-MSH with 5 nmol/kg probe, 2 hr
# Sequence of MC1R (Q01726 whole entry): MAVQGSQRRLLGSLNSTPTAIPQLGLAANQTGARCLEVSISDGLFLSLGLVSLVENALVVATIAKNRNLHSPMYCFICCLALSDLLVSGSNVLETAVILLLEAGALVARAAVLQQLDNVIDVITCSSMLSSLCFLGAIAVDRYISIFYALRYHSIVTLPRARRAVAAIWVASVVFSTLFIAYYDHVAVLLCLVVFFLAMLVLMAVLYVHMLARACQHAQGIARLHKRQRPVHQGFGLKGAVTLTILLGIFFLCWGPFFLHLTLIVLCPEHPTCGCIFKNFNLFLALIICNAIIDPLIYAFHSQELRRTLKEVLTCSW
# Sequence of MC4R (P32245 whole entry): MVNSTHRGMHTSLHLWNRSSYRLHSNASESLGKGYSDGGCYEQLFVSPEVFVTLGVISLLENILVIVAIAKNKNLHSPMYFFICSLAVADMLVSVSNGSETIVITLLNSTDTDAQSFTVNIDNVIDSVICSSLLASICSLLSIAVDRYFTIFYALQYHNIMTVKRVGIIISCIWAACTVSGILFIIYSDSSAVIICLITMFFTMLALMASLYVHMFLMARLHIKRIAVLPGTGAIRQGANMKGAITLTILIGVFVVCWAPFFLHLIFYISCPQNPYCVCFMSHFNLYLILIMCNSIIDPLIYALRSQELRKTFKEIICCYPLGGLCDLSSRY
# Sequence of MC5R (P33032 whole entry): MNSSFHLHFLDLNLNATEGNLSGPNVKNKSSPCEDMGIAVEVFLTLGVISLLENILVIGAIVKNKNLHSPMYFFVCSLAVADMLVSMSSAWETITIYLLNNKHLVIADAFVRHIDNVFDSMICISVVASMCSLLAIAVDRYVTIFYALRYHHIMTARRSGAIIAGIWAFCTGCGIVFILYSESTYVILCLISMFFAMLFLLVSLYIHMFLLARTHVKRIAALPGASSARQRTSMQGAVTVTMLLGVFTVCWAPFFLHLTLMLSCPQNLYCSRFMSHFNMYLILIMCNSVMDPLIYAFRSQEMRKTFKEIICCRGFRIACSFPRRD
smiles,measurement,setting,value
"NC(=O)[C@H](Cc1c[nH]c2ccccc12)NC(=O)[C@H](CCCN=C(N)N)NC(=O)[C@@H](Cc1ccccc1)NC(=O)[C@H](Cc1cnc[nH]1)NC(=O)CCCc1ccccc1 [Compound 1, 4-phenylbutyryl-His-DPhe-Arg-Trp-NH2]",Ki,MC1R; read-out: Ki MC1R (values derived from literature),0.01 nM
"CCCC[C@H](NC(=O)[C@@H](NC(=O)[C@@H](N)Cc1ccc(O)cc1)C(C)C)C(=O)NCC(=O)N[C@@H](Cc1cnc[nH]1)C(=O)N[C@H](Cc1ccc2ccccc2c1)C(=O)N[C@@H](CCCNC(=N)N)C(=O)N[C@H](Cc1ccccc1)C(=O)N[C@@H](CC(=O)O)C(=O)N[C@@H](CCCNC(=N)N)C(=O)N[C@@H](Cc1ccccc1)C(=O)NCC(N)=O [Compound 7, H-Tyr-Val-Nle-Gly-His-DNal(2′)-Arg-DPhe-Asp-Arg-Phe-Gly-NH2] (H-YV[Nle]GH[d2Nal]R[dF]DRFG-NH2)",EC50,MC4R,20 nM
same,EC50,MC5R,3.3 nM
same,EC50,"MC1R; footnote: value denotes an EC50, read-out: EC50 MC1R (values derived from literature)",1.6 nM
"CC1(C)C(=CC=C2CCCC(C=CC3=[N+](CCCCCC(=O)NCCN4C(=O)CC(SCCC(=O)NCCCC[C@H](NC(=O)CNC(=O)[C@H](Cc5c[nH]c6ccccc56)NC(=O)[C@H](CCCNC(=N)N)NC(=O)[C@@H](Cc5ccccc5)NC(=O)[C@H](Cc5c[nH]cn5)NC(=O)CCCc5ccccc5)C(N)=O)C4=O)c4ccc(S(=O)(=O)[O-])cc4C3(C)C)=C2Oc2ccc(S(=O)(=O)O)cc2)N(CCCCS(=O)(=O)O)c2ccc(S(=O)(=O)O)cc21 (stereo partly drawn) [MC1RL-800, 4-phenylbutyryl-His-DPhe-Arg-Trp-Gly-Lys(Mpr-IR800CW)-NH2]",probe binding after blocking with NDP-α-MSH,A375/MC1R cells; 2 μM NDP-α-MSH added before probe,No attachment; also recorded: No binding or uptake
same,time at which binding of probe to cell surface is observed,A375/MC1R cells; [5],≤ 15 s
same,time of intracellular accumulation / internalization,A375/MC1R cells; [5],≤ 5 min
same,logD,[1],-2.96
same,accumulation in the liver,[2],did not accumulate
same,kidney signal relative to tumor,[2],2 fold
same,normalized fluorescence signal of A375 (low MC1R) tumors compared to A375/MC1R tumors,"[3]; 2 h post-injection, n=3",significantly lower
same,"decrease of probe fluorescence signal after blocking, A375/MC1R tumors",[3]; [6],1.54 fold
same,"decrease of probe fluorescence signal after blocking, A375 tumor",[3]; [6],1.4 fold
same,half-life,[4],~10 h
